In patent US8207172B2 (Bayer Intellectual Property GmbH, priority 2004, dated 2012):
Structures can show the parent of a compound that is named as a salt.

What was measured:
[1] = tested on: A431 cells (human epidermoid carcinoma); assay: In vitro tumor cell proliferation assay (Cell Titer-Glo luminescent cell viability), A431; format: cell-based; conditions: A-431, 72 h, 72 hours of drug exposure, ATP luminescence readout, read-out: IC50, anti-proliferative activity (inhibition of cell proliferation)
Summary of the method: (§1)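 Seeding density 2.5×10^3 cells/well; 72 h drug exposure at 37° C; endpoint CellTiter-Glo luminescence, reported as IC50.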

[2] = tested on: BT474 (human breast carcinoma); assay: In vitro tumor cell proliferation assay (Cell Titer-Glo luminescent cell viability), BT474; format: cell-based; conditions: BT-474, 72 h, BT474 cells, 72 hours of drug exposure, ATP luminescence readout, read-out: IC50, anti-proliferative activity (inhibition of cell proliferation)
Summary of the method: as §1

Row | SMILES | IC50 [1] [µM] | IC50 [2] [µM]
1 | OCCN(CCO)C[C@@H](O)Cn1cc2c(n1)CCc1c-2sc2ncnc(Nc3ccc(OCc4cccc(F)c4)c(Cl)c3)c12 [Example 144, (2R)-1-[bis(2-hydroxyethyl)amino]-3-[6-({3-chloro-4-[(3-fluorobenzyl)oxy]phenyl}amino)-4,5-dihydro-2H-pyrimido[5′,4′:4,5]thieno[2,3-e]indazol-2-yl]propan-2-ol] | ≤ 50 | ≤ 1
2 | O[C@@H]1CCN(CCn2cc3c(n2)CCc2c-3sc3ncnc(Nc4ccc(F)c(Cl)c4)c23)C1 [Example 33, (3R)-1-(2-{6-[(3-chloro-4-fluorophenyl)amino]-4,5-dihydro-2H-pyrimido[5′,4′:4,5]thieno[2,3-e]indazol-2-yl}ethyl)-pyrrolidin-3-ol] | ≤ 5 | ≤ 5
3 | Fc1ccc(Nc2ncnc3sc4c(c23)CCc2nn(CCN3CCSCC3)cc2-4)cc1Cl [Example 35, N-(3-chloro-4-fluorophenyl)-2-(2-thiomorpholin-4-ylethyl)-4,5-dihydro-2H-pyrimido[5′,4′:4,5]thieno[2,3-e]indazol-6-amine] | ≤ 5 | ≤ 5
4 | COCCNCCn1cc2c(n1)CCc1c-2sc2ncnc(Nc3ccc(OCc4ccccn4)c(Cl)c3)c12 [Example 103, N-[3-chloro-4-(pyridin-2-ylmethoxy)phenyl]-2-{2-[(2-methoxyethyl)amino]ethyl}-4,5-dihydro-2H-pyrimido[5′,4′:4,5]thieno[2,3-e]indazol-6-amine] | ≤ 50 | ≤ 1
5 | CS(=O)(=O)CCNCCn1ncc2c1CCc1c-2sc2ncnc(Nc3ccc(OCc4cccc(F)c4)c(Cl)c3)c12 [Example 85, N-{3-chloro-4-[(3-fluorobenzyl)oxy]phenyl}-3-(2-{[2-(methylsulfonyl)ethyl]amino}ethyl)-4,5-dihydro-3H-pyrimido[5′,4′:4,5]thieno[2,3-e]indazol-6-amine] | ≤ 5 | ≤ 1
6 | CCC(CC)CN1CCC(CCn2cc3c(n2)CCc2c-3sc3ncnc(Nc4ccc(OCc5cccc(F)c5)c(Cl)c4)c23)CC1 [Example 250, N-{3-chloro-4-[(3-fluorobenzyl)oxy]phenyl}-2-{2-[1-(2-ethylbutyl)piperidin-4-yl]ethyl}-4,5-dihydro-2H-pyrimido[5′,4′:4,5]thieno[2,3-e]indazol-6-amine] | ≤ 5 | ≤ 1
7 | OC[C@@H]1CCCN1CCn1cc2c(n1)CCc1c-2sc2ncnc(Nc3ccc(F)c(Cl)c3)c12 [Example 32, [(2S)-1-(2-{6-[(3-chloro-4-fluorophenyl)amino]-4,5-dihydro-2H-pyrimido[5′,4′:4,5]thieno[2,3-e]indazol-2-yl}ethyl)pyrrolidin-2-yl]methanol] | ≤ 5 | ≤ 5
8 | OC[C@H](O)Cn1cc2c(n1)CCc1c-2sc2ncnc(Nc3ccc(OCc4cccc(F)c4)c(Cl)c3)c12 [Example 76, (R)-3-{6-[3-Chloro-4-(3-fluoro-benzyloxy)-phenylamino]-4,5-dihydro-10-thia-2,3,7,9-tetraaza-cyclopenta[a]fluoren-2-yl}-propane-1,2-diol] | ≤ 5 | ≤ 1
9 | CS(=O)(=O)OCCn1cc2c(n1)CCc1c-2sc2ncnc(Nc3ccc(OCc4cccc(F)c4)c(Cl)c3)c12 [Example 57, 2-[6-({3-chloro-4-[(3-fluorobenzyl)oxy]phenyl}amino)-4,5-dihydro-2H-pyrimido[5′,4′:4,5]thieno[2,3-e]indazol-2-yl]ethyl methanesulfonate] | ≤ 5 | ≤ 1
10 | CN1CCN(CCn2ncc3c2CCc2c-3sc3ncnc(Nc4ccc(OCc5cccc(Cl)c5)c(Cl)c4)c23)CC1 [Example 317, N-{3-chloro-4-[(3-chlorobenzyl)oxy]phenyl}-3-[2-(4-methylpiperazin-1-yl)ethyl]-4,5-dihydro-3H-pyrimido[5′,4′:4,5]thieno[2,3-e]indazol-6-amine trifluoroacetate] | ≤ 5 | ≤ 1
11 | CCN1CCN(CCn2ncc3c2CCc2c-3sc3ncnc(Nc4ccc5c(cnn5Cc5cccc(F)c5)c4)c23)CC1 [Example 294, 3-[2-(4-ethylpiperazin-1-yl)ethyl]-N-[1-(3-fluorobenzyl)-1H-indazol-5-yl]-4,5-dihydro-3H-pyrimido[5′,4′:4,5]thieno[2,3-e]indazol-6-amine] | ≤ 50 | ≤ 1
12 | CN1CCN(CCn2cc3c(n2)CCc2c-3sc3ncnc(Nc4ccc5c(cnn5Cc5ccccc5)c4)c23)CC1 [Example 39, N-(1-benzyl-1H-indazol-5-yl)-2-[2 (4-methylpiperazin-1-yl)ethyl]-4,5-dihydro-2H-pyrimido[5′,4′:4,5]thieno[2,3-e]indazol-6-amine] | ≤ 50 | ≤ 1
13 | OCCN(CCO)CCn1ncc2c1CCc1c-2sc2ncnc(Nc3ccc(F)c(Cl)c3)c12 [Example 91, 2,2′-[(2-{6-[(3-chloro-4-fluorophenyl)amino]-4,5-dihydro-3H-pyrimido[5′,4′:4,5]thieno[2,3-e]indazol-3-yl}ethyl)imino]diethanol trifluoroacetate (salt)] | ≤ 5 | ≤ 5
14 | Clc1cc(Nc2ncnc3sc4c(c23)CCc2n[nH]cc2-4)ccc1OCc1ccccc1 [Example 127, N-[4-(benzyloxy)-3-chlorophenyl]-4,5-dihydro-2H-pyrimido[5′,4′:4,5]thieno[2,3-e]indazol-6-amine] | ≤ 5 | ≤ 1
15 | CN1CCN(CCn2ncc3c2CCc2c-3sc3ncnc(Nc4ccc5c(cnn5Cc5cccc(F)c5)c4)c23)CC1 [Example 295, 3-[2-(4-methylpiperazin-1-yl)ethyl]-N-[1-(3-fluorobenzyl)-1H-indazol-5-yl]-4,5-dihydro-3H-pyrimido[5′,4′:4,5]thieno[2,3-e]indazol-6-amine] | ≤ 5 | ≤ 1
16 | Fc1cccc(Cn2ncc3cc(Nc4ncnc5sc6c(c45)CCc4nn(CCN5CCOCC5)cc4-6)ccc32)c1 [Example 278, N-[1-(3-fluorobenzyl)-1H-indazol-5-yl]-2-(2-morpholin-4-ylethyl)-4,5-dihydro-2H-pyrimido[5′,4′:4,5]thieno[2,3-e]indazol-6-amine] | ≤ 5 | ≤ 1
17 | COC[C@@H]1CCCN1C[C@@H](O)Cn1cc2c(n1)CCc1c-2sc2ncnc(Nc3ccc(OCc4cccc(F)c4)c(Cl)c3)c12 [Example 140, (2R)-1-[6-({3-chloro-4-[(3-fluorobenzyl)oxy]phenyl}amino)-4,5-dihydro-2H-pyrimido[5′,4′:4,5]thienol[2,3-e]indazol-2-yl]-3-[(2S)-2-(methoxymethyl)pyrrolidin-1-yl]propan-2-ol] | ≤ 50 | ≤ 1
18 | CN(C)C1CCN(C(=O)Cn2ncc3c2CCc2c-3sc3ncnc(Nc4ccc(OCc5cccc(F)c5)c(Cl)c4)c23)C1 (stereo in doubt) [Example 208, N-{3-chloro-4-[(3-fluorobenzyl)oxy]phenyl}-3-{2-[(3S)-3-(dimethylamino)pyrrolidin 1-yl]-2-oxoethyl}-4,5-dihydro-3H-pyrimido[5′,4′:4,5]thieno[2,3-e]indazol-6-amine] | ≤ 5 | ≤ 1
19 | CS(=O)(=O)CCNCCn1ncc2c1CCc1c-2sc2ncnc(Nc3ccc(F)c(Cl)c3)c12 [Example 92, N-(3-chloro-4-fluorophenyl)-3-(2-{[2-(methylsulfonyl)ethyl]amino}ethyl)-4,5-dihydro-3H-pyrimido[5′,4′:4,5]thieno[2,3-e]indazol-6-amine] | ≤ 5 | ≤ 5
20 | CN(C)[C@@H]1CCN(CC(=O)N2CCC(Cn3cc4c(n3)CCc3c-4sc4ncnc(Nc5ccc(OCc6cccc(F)c6)c(Cl)c5)c34)CC2)C1 [Example 234, N-{3-chloro-4-[(3-fluorobenzyl)oxy]phenyl}-2-[(1-{[(3R)-3-(dimethylamino)pyrrolidin-1-yl]acetyl}piperidin-4-yl)methyl]-4,5-dihydro-2H-pyrimido[5′,4′:4,5]thieno[2,3-e]indazol-6-amine trifluoroacetate] | ≤ 50 | ≤ 5
21 | NCC(=O)OCCn1cc2c(n1)CCc1c-2sc2ncnc(Nc3ccc(OCc4cccc(F)c4)c(Cl)c3)c12 [Example 315, 2-[6-({3-chloro-4-[(3-fluorobenzyl)oxy]phenyl}amino)-4,5-dihydro-2H-pyrimido[5′,4′:4,5]thieno[2,3-e]indazol-2-yl]ethyl glycinate] | ≤ 5 | ≤ 1
22 | CS(=O)(=O)CCNCCn1cc2c(n1)CCc1c-2sc2ncnc(Nc3ccc(OCc4cccc(F)c4)c(Cl)c3)c12 [Example 78, N-{3-chloro-4-[(3-fluorobenzyl)oxy]phenyl}-2-(2-{[2-(methylsulfonyl)ethyl]amino}ethyl)-4,5-dihydro-2H-pyrimido[5′,4′:4,5]thieno[2,3-e]indazol-6-amine] | ≤ 5 | ≤ 1
23 | OCCN(CCO)CCn1cc2c(n1)CCc1c-2sc2ncnc(Nc3ccc(F)c(Cl)c3)c12 [Example 26, 2,2′-[(2-{6-[(3-chloro-4-fluorophenyl)amino]-4,5-dihydro-2H-pyrimido[5′,4′:4,5]thieno[2,3-e]indazol-2-yl}ethyl)imino]diethanol] | ≤ 5 | ≤ 5
24 | CN1CCN(CCn2cc3c(n2)CCc2c-3sc3ncnc(Nc4ccc(F)c(Cl)c4)c23)CC1 [Example 8, N-(3-chloro-4-fluorophenyl)-2-[2-(4-methylpiperazin-1-yl)ethyl]-4,5-dihydro-2H-pyrimido[5′,4′:4,5]thieno[2,3-e]indazol-6-amine] | ≤ 5 | ≤ 1
25 | CN1CCN(CCn2cc3c(n2)CCc2c-3sc3ncnc(Nc4ccc(Br)c(Cl)c4)c23)CC1 [Example 50, N-(4-bromo-3-chlorophenyl)-2-[2-(4-methylpiperazin-1-yl)ethyl]-4,5-dihydro-2H-pyrimido[5′,4′:4,5]thieno[2,3-e]indazol-6-amine] | ≤ 5 | ≤ 5
